≈ marks a conversion by molar mass, not a printed value. Calls of active or inactive are those of the source. No cut-off for these calls is given here.
Key:
Assay type in all cases: functional
[1] = tested on: Candida albicans; experiment: Antifungal activity against Candida albicans ATCC 10231 after 24 hr by disk diffusion method; conditions: ATCC 10231, 24 h
[2] = tested on: Escherichia coli; experiment: Antibacterial activity against Escherichia coli ATCC 35218 after 24 hr by disk diffusion method; conditions: ATCC 35218, 24 h
[3] = tested on: Candida albicans; experiment: Antifungal activity against Candida albicans ATCC 10231 at 400 ug/ml after 24 hr by cup-plate agar method; conditions: for zone of inhibition at 400 µg/mL: ATCC 10231, 24 h, read-out: IZ
[4] = tested on: Escherichia coli; experiment: Antibacterial activity against Escherichia coli ATCC 35218 at 400 ug/ml after 24 hr by cup-plate agar method; conditions: for zone of inhibition at 400 µg/mL: ATCC 35218, 24 h, read-out: IZ
[5] = tested on: Staphylococcus aureus; experiment: Antibacterial activity against Staphylococcus aureus ATCC 29737 at 400 ug/ml after 24 hr by cup-plate agar method; conditions: for zone of inhibition at 400 µg/mL: ATCC 29737, 24 h, read-out: IZ
[6] = tested on: Staphylococcus aureus; experiment: Antibacterial activity against Staphylococcus aureus ATCC 29737 after 24 hr by disk diffusion method; conditions: ATCC 29737, 24 h

Compound	MIC [1] [µg/mL]	MIC [2] [µg/mL]	inhibition zone (IZ) [3]	zone of inhibition at 400 µg/mL [4] [mm]	zone of inhibition at 400 µg/mL [5] [mm]	MIC [6] [µg/mL]	zone of inhibition at 400 µg/mL [3] [mm]	inhibition zone (IZ) [4]	inhibition zone (IZ) [5]
COc1ccc(/C=C/C(=O)c2ccc(C(=O)/C=C/c3ccc(OC)c(OC)c3)cc2)cc1OC	200 (≈ 436 µM)	100 (≈ 218 µM)	inactive	30	11				
COc1ccc(/C=C/C(=O)c2ccc(C(=O)/C=C/c3ccc(OO)cc3)cc2)cc1						300 (≈ 749 µM)	22	inactive	inactive
O=C(/C=C/c1ccccc1)c1ccc(C(=O)/C=C/c2ccccc2)cc1	200 (≈ 591 µM)	200 (≈ 591 µM)		13	10	200 (≈ 591 µM)	17		
COc1cccc(/C=C/C(=O)c2ccc(C(=O)/C=C/c3cccc(OC)c3)cc2)c1			inactive					inactive	inactive
O=C(/C=C/c1ccc([N+](=O)[O-])cc1)c1ccc(C(=O)/C=C/c2ccc([N+](=O)[O-])cc2)cc1	200 (≈ 467 µM)	50 (≈ 117 µM)		13	10	50 (≈ 117 µM)	25		
O=C(/C=C/c1ccc(Cl)cc1)c1ccc(C(=O)/C=C/c2ccc(Cl)cc2)cc1	200 (≈ 491 µM)	100 (≈ 246 µM)		23	10	200 (≈ 491 µM)	12		
GENTAMICIN								24 mm	23 mm
O=C(/C=C/c1ccccc1Cl)c1ccc(C(=O)/C=C/c2ccccc2Cl)cc1	100 (≈ 246 µM)	100 (≈ 246 µM)		27	10	200 (≈ 491 µM)	12		
O=C(/C=C/c1cccc([N+](=O)[O-])c1)c1ccc(C(=O)/C=C/c2cccc([N+](=O)[O-])c2)cc1			inactive					inactive	inactive
O=C(/C=C/c1cccc(Br)c1)c1ccc(C(=O)/C=C/c2cccc(Br)c2)cc1	200 (≈ 403 µM)	50 (≈ 101 µM)	inactive	30	10				
C[C@@H]1[C@H](O)[C@@H](C)/C=C/C=C/C=C/C=C/C=C/C=C/C=C/[C@H](O[C@@H]2O[C@H](C)[C@@H](O)[C@H](N)[C@@H]2O)C[C@@H]2O[C@](O)(C[C@@H](O)C[C@@H](O)[C@H](O)CC[C@@H](O)C[C@@H](O)CC(=O)O[C@H]1C)C[C@H](O)[C@H]2C(=O)O [AMPHOTERICIN B]							21		
O=C(/C=C/c1ccccc1[N+](=O)[O-])c1ccc(C(=O)/C=C/c2ccccc2[N+](=O)[O-])cc1	100 (≈ 233 µM)	100 (≈ 233 µM)		21	15	100 (≈ 233 µM)	15		
O=C(/C=C/c1cccc(Cl)c1)c1ccc(C(=O)/C=C/c2cccc(Cl)c2)cc1		300 (≈ 737 µM)		13		300 (≈ 737 µM)	12		inactive
O=C(/C=C/c1ccc(Br)cc1)c1ccc(C(=O)/C=C/c2ccc(Br)cc2)cc1	200 (≈ 403 µM)	50 (≈ 101 µM)	inactive	30	9				
COc1ccccc1/C=C/C(=O)c1ccc(C(=O)/C=C/c2ccccc2OC)cc1						300 (≈ 753 µM)	9	inactive	inactive
O=C(/C=C/c1ccccc1O)c1ccc(C(=O)/C=C/c2ccccc2O)cc1	100 (≈ 270 µM)	50 (≈ 135 µM)	inactive	30	13				
